Source: patent publication US20150224202A1, “FORMULATIONS AND USES FOR MICROPARTICLE DELIVERY OF ZINC PROTOPORPHYRINS” (priority 2014, published 2015)

What was measured:
3-day-old mouse pups = assay: Effect of light exposure on metalloporphyrin-treated newborn mice (chemical toxicity and phototoxicity); conditions: for chemical toxicity / phototoxicity, summary: 3.75 to 30.0 μmol/kg BW IP; for LD50 (50% lethal dose), exposed to light: fluorescent light (2 cool white, 1 blue tube) 3 hours
Description: FIG. 2 includes three panels ((A), (B), and (C)), showing the experimental setup for phototoxicity studies. 3-day-old pups (magnified in panel (A)) were given vehicle or Mp IP at doses ranging from 3.75 to 30 μmol/kg body weight (BW) and then exposed for 3 hours to fluorescent light consisting of 2 cool white and 1 blue tubes (as shown in panel (B)) emitting an irradiance of 35.0±1.0 μW/cm^2/nm as measured by a BiliBlanket II Meter (as depicted in panel (C)).
Effect of light exposure on metalloporphyrin-treated newborn mice. […] Pups were either kept in the dark (controls) or exposed to fluorescent light composed of two cool white tubes (F20T12cW) and one blue (TL20W/52) tube for 3 hours (FIG. 2).

heme oxygenase (HO) = assay: HO activity inhibition in ZnBG-treated 3-day-old pups (FIG. 3); type: in vivo, mouse
newborn rhesus monkeys = assay: Hemolytic jaundice model, newborn rhesus monkeys treated with heat-damaged erythrocytes; type: in vivo, rhesus monkey
Excerpt: However, ZnPP has been troublesome to maintain in solution and is not orally absorbed, requiring parenteral administration.

[1] = after exposure to fluorescent light

Row | Compound | chemical toxicity / phototoxicity, summary (3-day-old mouse pups) | LD50 (50% lethal dose), exposed to light (3-day-old mouse pups; IP, 3-day-old mouse pups) [µmol/kg] | LD50 (50% lethal dose), kept in the dark (3-day-old mouse pups; IP, 3-day-old mouse pups, kept in the dark) [µmol/kg] | lethality under blue LED light (3-day-old mouse pups; 30 μmol/kg BW, blue light-emitting diode (LED) light) | chemical toxicity, kept in the dark (3-day-old mouse pups; 30 μmol/kg, kept in the dark) | doses at which gross histologic skin changes developed (3-day-old mouse pups; 6 days after light exposure) [μmol/kg BW] | aspartate aminotransaminase (AST) levels (3-day-old mouse pups; [1]) | body weight after exposure to light (3-day-old mouse pups; [1]) | creatine kinase (CK-MB) levels (3-day-old mouse pups; [1]) | liver antioxidant capacities (3-day-old mouse pups; [1]) | inhibited HO activity (heme oxygenase (HO); 3.75 μmol ZnBG/kg BW) | doses retaining maximal HO inhibitory potency without photosensitizing effects (heme oxygenase (HO); FIG. 3) [μmol/kg BW] | tissue targeting of HO inhibition (newborn rhesus monkeys; 40 μmol/kg BW SC) | time to reduce carboxyhemoglobin and total bilirubin levels to baseline levels (newborn rhesus monkeys; 40 μmol/kg BW subcutaneously (SC)) [h]
1 | chromium mesoporphyrin [CrMP] | has a chemical toxicity, but no phototoxicity | 23.0 | 21.5 |  |  |  |  |  |  |  |  |  |  | 
2 | zinc bis glycol porphyrin [ZnBG] | has no chemical toxicity, but a phototoxicity that is dependent on the light source | 19.5 |  | no lethality was observed | did not show any chemical toxicity | > 7.5 | increases | significant weight loss | increases | decreases | up to 75% | < 3.75 |  | 
3 | C=CC1=C(C)c2cc3[n-]c(cc4nc(cc5[n-]c(cc1n2)c(C)c5C=C)C(C)=C4CCC(=O)O)c(CCC(=O)O)c3C.[Zn+2] [ZnPP, Zinc protoporphyrin] |  |  |  |  |  |  |  |  |  |  |  |  | targeted to the liver and spleen, without affecting the kidney or brain | ≤ 24
